Experimental data as given in ChEMBL document CHEMBL4680251, “Discovery of a 2-pyridinyl urea-containing compound YD57 as a potent inhibitor of apoptosis signal-regulating kinase 1 (ASK1)” (Eur J Med Chem, 2020).

Tests used:
[1] = biological target: Glycogen synthase kinase-3 beta (Homo sapiens, UniProt P49841); test: Inhibition of human recombinant GSK3 beta H350L mutant using YRRAAVPPSPSLSR as substrate incubated for 40 mins in presence of [gamma-33ATP] by radiometric scintillation counting analysis
Sequence of Glycogen synthase kinase-3 beta (P49841 whole entry): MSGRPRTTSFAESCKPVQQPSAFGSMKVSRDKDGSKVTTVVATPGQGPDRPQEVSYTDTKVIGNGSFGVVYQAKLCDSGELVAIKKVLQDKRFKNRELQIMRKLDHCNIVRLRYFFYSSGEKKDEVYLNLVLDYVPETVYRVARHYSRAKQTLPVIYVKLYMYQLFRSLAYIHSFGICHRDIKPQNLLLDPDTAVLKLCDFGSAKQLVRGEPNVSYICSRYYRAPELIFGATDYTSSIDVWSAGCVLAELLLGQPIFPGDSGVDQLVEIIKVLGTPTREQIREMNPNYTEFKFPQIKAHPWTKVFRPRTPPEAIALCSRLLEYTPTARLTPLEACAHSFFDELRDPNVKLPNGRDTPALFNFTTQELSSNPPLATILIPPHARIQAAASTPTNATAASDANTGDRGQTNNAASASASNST

CDK2/Cyclin A2 = CDK2/Cyclin A2 (Homo sapiens, UniProt P24941); test: Inhibition of full length human recombinant CDK2/Cyclin A using histone H1 as substrate incubated for 40 mins in presence of [gamma-33ATP] by radiometric scintillation counting analysis; type: protein-complex assay
[2] = biological target: T1, Mitogen-activated protein kinase kinase kinase 7 (Homo sapiens, UniProt O43318); test: Inhibition of TAK1 (unknown origin)
T1 sequence (O43318 whole entry): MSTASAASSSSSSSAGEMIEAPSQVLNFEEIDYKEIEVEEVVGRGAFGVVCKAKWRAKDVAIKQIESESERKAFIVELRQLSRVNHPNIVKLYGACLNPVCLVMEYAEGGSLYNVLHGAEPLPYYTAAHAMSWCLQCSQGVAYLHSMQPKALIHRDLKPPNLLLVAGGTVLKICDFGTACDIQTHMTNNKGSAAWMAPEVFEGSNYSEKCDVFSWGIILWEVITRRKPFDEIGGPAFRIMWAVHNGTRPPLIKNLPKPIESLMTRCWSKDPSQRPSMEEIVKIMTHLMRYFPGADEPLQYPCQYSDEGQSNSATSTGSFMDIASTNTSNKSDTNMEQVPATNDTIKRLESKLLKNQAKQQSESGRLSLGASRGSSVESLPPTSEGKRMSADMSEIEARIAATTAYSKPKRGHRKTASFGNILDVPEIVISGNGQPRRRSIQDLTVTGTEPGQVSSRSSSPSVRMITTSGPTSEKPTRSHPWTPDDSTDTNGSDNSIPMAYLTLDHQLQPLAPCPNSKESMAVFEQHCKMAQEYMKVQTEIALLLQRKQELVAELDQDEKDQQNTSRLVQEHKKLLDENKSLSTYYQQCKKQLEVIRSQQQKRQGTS

HepG2 [3] = test: Induction of cell cycle arrest in human HepG2 cells assessed as accumulation at G0/G1 phase at 0.5 uM incubated for 24 hrs by propidium iodide staining based flow cytometry (reference value: 38.34%); type: functional
HepG2 [4] = test: Induction of cell cycle arrest in human HepG2 cells assessed as accumulation at G0/G1 phase at 16 uM incubated for 24 hrs by propidium iodide staining based flow cytometry (reference value: 38.34%); type: functional
[5] = biological target: T2, Mitogen-activated protein kinase kinase kinase 6 (Homo sapiens, UniProt O95382); test: Inhibition of ASK2 (unknown origin)
T2 sequence (O95382 whole entry): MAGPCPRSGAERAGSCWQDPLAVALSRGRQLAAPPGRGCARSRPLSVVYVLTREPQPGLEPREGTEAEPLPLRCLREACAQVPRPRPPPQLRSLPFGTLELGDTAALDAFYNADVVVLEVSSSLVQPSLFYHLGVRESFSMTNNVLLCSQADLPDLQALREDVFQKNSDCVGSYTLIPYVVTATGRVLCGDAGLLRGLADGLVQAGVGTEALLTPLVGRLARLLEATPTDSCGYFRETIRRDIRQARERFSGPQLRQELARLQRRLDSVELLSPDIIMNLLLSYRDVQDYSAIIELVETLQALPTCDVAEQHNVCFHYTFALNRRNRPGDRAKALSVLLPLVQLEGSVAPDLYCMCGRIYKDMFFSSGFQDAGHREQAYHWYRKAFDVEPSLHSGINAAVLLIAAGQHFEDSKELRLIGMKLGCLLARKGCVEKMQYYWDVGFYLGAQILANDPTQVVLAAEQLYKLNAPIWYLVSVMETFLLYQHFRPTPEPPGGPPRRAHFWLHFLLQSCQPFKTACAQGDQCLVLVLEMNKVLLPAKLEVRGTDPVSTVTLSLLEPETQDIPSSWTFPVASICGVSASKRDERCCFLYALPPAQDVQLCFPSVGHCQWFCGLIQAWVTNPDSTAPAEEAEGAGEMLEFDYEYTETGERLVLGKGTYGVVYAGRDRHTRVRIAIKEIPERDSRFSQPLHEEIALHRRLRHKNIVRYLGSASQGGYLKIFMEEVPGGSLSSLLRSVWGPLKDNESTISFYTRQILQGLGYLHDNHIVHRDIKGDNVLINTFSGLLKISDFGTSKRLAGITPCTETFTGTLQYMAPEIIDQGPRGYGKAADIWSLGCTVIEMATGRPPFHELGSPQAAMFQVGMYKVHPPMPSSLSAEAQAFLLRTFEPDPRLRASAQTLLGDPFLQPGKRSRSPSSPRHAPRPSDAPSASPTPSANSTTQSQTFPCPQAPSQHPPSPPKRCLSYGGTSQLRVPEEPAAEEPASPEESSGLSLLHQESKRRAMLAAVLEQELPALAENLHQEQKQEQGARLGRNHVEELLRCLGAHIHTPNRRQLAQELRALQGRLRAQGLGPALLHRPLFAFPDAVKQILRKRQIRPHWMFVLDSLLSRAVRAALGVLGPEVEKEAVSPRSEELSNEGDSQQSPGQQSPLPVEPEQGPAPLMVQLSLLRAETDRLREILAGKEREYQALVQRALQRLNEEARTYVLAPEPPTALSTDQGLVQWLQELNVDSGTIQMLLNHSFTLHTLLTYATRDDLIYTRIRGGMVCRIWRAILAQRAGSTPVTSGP

[6] = biological target: Non-receptor tyrosine-protein kinase TYK2 (Homo sapiens, UniProt P29597); test: Inhibition of human recombinant TYK2 (875 to end residues) using GGMEDIYFEFMGG as substrate incubated for 40 mins in presence of [gamma-33ATP] by radiometric scintillation counting analysis
Sequence of Non-receptor tyrosine-protein kinase TYK2 (P29597 whole entry): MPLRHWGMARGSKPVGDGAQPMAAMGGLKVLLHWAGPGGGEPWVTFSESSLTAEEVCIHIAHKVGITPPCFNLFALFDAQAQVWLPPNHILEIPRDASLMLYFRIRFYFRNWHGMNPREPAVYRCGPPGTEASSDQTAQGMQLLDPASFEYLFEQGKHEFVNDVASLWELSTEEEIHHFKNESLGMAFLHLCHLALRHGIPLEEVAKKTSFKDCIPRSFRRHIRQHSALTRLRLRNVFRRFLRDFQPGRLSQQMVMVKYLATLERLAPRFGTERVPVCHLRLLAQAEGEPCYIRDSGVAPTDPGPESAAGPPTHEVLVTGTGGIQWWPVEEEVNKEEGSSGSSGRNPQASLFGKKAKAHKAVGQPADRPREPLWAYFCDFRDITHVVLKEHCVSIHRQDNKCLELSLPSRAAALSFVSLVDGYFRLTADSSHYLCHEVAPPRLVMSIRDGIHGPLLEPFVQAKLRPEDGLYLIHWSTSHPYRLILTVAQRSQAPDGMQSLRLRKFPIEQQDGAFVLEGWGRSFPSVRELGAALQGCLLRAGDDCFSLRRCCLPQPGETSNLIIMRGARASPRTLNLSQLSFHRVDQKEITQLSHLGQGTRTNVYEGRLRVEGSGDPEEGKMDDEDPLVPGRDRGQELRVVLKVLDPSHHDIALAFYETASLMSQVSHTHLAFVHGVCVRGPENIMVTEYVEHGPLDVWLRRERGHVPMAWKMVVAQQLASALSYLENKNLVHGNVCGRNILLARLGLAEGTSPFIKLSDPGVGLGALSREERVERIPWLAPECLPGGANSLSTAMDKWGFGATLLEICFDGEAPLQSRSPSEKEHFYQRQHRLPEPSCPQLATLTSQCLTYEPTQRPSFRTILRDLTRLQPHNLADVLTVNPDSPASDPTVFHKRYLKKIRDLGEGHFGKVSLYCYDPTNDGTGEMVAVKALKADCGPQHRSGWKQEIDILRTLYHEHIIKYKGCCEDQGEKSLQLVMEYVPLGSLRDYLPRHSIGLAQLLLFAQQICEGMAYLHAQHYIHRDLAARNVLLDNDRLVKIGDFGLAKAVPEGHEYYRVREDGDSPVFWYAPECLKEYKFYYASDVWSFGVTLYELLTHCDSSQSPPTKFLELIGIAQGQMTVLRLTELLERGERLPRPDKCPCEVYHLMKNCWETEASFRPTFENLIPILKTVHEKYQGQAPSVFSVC

HepG2 [7] = test: Induction of cell cycle arrest in human HepG2 cells assessed as accumulation at G0/G1 phase at 1 uM incubated for 24 hrs by propidium iodide staining based flow cytometry (reference value: 38.34%); type: functional
HepG2 [8] = test: Induction of cell cycle arrest in human HepG2 cells assessed as accumulation at G2/M phase at 0.5 uM incubated for 24 hrs by propidium iodide staining based flow cytometry (reference value: 33.49%); type: functional
HepG2 [9] = test: Induction of cell cycle arrest in human HepG2 cells assessed as accumulation at G0/G1 phase at 2 uM incubated for 24 hrs by propidium iodide staining based flow cytometry (reference value: 38.34%); type: functional

C[C@H](CO)n1cnnc1-c1cccc(NC(=O)Nc2cc3ccccn3n2)n1
IC50 [1]: 283 nM | IC50 (CDK2/Cyclin A2): 352 nM | IC50 [2]: 4980 nM | Activity (HepG2 [3]): 46.22% | Activity (HepG2 [4]): 69.77% | IC50 [5]: 5290 nM | IC50 [6]: 1690 nM | Activity (HepG2 [7]): 60.13% | Activity (HepG2 [8]): 27.33% | Activity (HepG2 [9]): 63.79%
